Measurements: patent US5686428A, “Pharmaceutical composition” (priority 1994, dated 1997)
Entries after “also recorded” stand apart in the source; their conditions may differ. Like-named read-outs stand apart in the source and are kept apart here.

How the values were obtained:
HCMV strain Ad169 = assay: HCMV plaque reduction assay in HEL cells; format: cell-based, human cytomegalovirus; settings: for EC50: Human betaherpesvirus 5, AD169, HEL, CMV infected cells
Procedure: HCMV strain Ad169 was a gift from Dr. Fred Rapp, Hersey, Pa. Human embryonic lung (HEL) cells, obtained from the American Type Culture Collection, Rockville, Md., were cultured in Dulbecco modified Eagle medium as decribed previously (39). Viable cells were conducted microscopically using a hemacytometer and the trypan blue exclusion method. Plaque reduction assays were performed in confluent monolayers of HEL cells in 6-well plates (Costar, Cambridge, Mass.) with 100 to 200 pfu of HCMV Ad169. After an adsorption period of 1 hour, unadsorbed virus was removed and the monolayers were overlaid with Dulbecco modified Eagle medium containing 0.75% SeaPlaque agarose (FMC BioProducts, Rockland, Me.), 2% heat inactivated fetal calf serum, and the appropriate concentration of drug. The plates were incubated at 37° C. in a humidified atmosphere containing 5% CO2 for 10 to 12 days. The monolayers were then fixed with 10% buffered Formalin (Fisher Scientific Co, Fair Lawn, N.J.), stained with crystal violet, and the number of plaques were counted.
(§1) Calculation of synergy. […] Briefly, the method involves plotting of dose-effect curves for each compound alone and in combinations. It is essential to use a fixed ratio of the agents in multiply diluted combinations in order to use the median-effect equation: fa /fu =(C/Cm)^m. In this equation, C is the concentration, fa and fu are the fractions of the system which are affected and unaffected, respectively, by concentration C. Cm is the concentration required for a 50% effect (analogous to IC50 to EC50 values), and m is a Hill-type coefficient signifying the sigmoidicity of the dose-effect curve. The slopes (m) of the dose-effect plots, obtained for the studied compounds, provided information as to whether the compounds are mutually exclusive (i.e. similar modes of action) or mutually non-exclusive (i.e. different modes of action). When the plots of both compounds and their combination were all parallel, the effects of the two compounds were mutually exclusive. The interaction between two compounds was determined by calculating the combination index (C.I.) with assumptions, where appropriate, of either mutually exclusive or non-exclusive interactions. When uncertainty existed as to whether the drugs acted in similar or independent manners, the determination of C.I.-values were calculated under each assumption and compared. Values of C.I.<1 indicated synergy, C.I.=1 indicated additive effects, and C.I.>1 indicated antagonism. A computer program obtained from Elsevier-Biosoft, Cambridge, U.K. was used for automatic analysis of all dose-effect data. Additional details on using this method have been reported previously (33).

HIV-1 (strain LAV-1) = assay: HIV-1 replication in infected human PBM cells (RT activity of disrupted virions); format: cell-based; settings: for EC50: read-out: EC50 (median effective concentration)
Text: Cells, virus strains, and cell culture assays. PBM cells from healthy HIV-1 and hepatitis B virus seronegative donors were isolated and propagated as described previously (35). HIV-1 (strain LAV-1) was obtained from the Centers for Disease Control, Atlanta, and propagated in PHA-stimulated human PBM cells as described previously (35). The details of the methods used for infection and assaying the anti-HIV-1 effect in infected human PBM cells have been reported (35).
RT activity assay with disrupted virions. Six ml supernatant from each culture was clarified from cells at 300× g for 10 minutes. Virus particles were then pelleted from 5 ml samples at 40,000 rpm for 30 minutes using a Beckman 70.1 Ti rotor and suspended in 200 μl of virus disrupting buffer [50 mM Tris-HCl pH 7.8, 800 mM NaCl, 20% glycerol, 0.5 mM phenylmethyl sulfonyl fluoride (PMSF), and 0.5% Triton X-100].
The RT assays were performed at 37° C. in 96-well microtiter plates using methods described previously (35, 38). The results were expressed as dpm/ml of the originally clarified supernatant.
as §1

[1] = molecular target: T1, HIV-1 reverse transcriptase (Human immunodeficiency virus type 1 group M subtype B, UniProt P04585); assay: RT activity assay with partially purified enzyme; format: biochemical
T1 construct: HIV-1 reverse transcriptase was isolated from detergent disrupted virions; endogenous in cells; host or cells: virions from cell-free supernatant of HIV-1 infected PHA-stimulated human PBM cells, ion-exchange chromatography
Procedure: RT activity assay with partially purified enzyme. HIV-1 reverse transcriptase was isolated from detergent disrupted virions obtained from the cell-free supernantant of infected PHA-stimulated PBM cells. The enzyme was purified by passing the extract through ion-exchange chromatography columns as described previously (12). The enzyme was characterized as HIV-1 RT based on its specific requirements according to previous description (1, 18). The standard reaction mixture (100 μl) contained 100 mM Tris-HCl (pH 8.0), 50 mM KCl, 2 mM MgCl2. 5 mM dithiothreitol 400 μg/ml bovine serum albumin, 0.05 U/ml (3.1 μg/ml) of (rA)n (dT)12-18, 1 μM [^3 H] dTTP (spec. act. 18,000 cpm/pmol) and 10 μl of HIV-1 Rt. The reactions were incubated and processed as previously described (7).
as §1

HCMV DNA polymerase = molecular target: T2, HCMV DNA polymerase (Human cytomegalovirus, UniProt P08546); assay: CMV DNA polymerase assay; format: biochemical
T2 construct: gift from Dr. B. Wahren, National Bacteriological Laboratory, Stockholm
T2 sequence (P08546 whole entry): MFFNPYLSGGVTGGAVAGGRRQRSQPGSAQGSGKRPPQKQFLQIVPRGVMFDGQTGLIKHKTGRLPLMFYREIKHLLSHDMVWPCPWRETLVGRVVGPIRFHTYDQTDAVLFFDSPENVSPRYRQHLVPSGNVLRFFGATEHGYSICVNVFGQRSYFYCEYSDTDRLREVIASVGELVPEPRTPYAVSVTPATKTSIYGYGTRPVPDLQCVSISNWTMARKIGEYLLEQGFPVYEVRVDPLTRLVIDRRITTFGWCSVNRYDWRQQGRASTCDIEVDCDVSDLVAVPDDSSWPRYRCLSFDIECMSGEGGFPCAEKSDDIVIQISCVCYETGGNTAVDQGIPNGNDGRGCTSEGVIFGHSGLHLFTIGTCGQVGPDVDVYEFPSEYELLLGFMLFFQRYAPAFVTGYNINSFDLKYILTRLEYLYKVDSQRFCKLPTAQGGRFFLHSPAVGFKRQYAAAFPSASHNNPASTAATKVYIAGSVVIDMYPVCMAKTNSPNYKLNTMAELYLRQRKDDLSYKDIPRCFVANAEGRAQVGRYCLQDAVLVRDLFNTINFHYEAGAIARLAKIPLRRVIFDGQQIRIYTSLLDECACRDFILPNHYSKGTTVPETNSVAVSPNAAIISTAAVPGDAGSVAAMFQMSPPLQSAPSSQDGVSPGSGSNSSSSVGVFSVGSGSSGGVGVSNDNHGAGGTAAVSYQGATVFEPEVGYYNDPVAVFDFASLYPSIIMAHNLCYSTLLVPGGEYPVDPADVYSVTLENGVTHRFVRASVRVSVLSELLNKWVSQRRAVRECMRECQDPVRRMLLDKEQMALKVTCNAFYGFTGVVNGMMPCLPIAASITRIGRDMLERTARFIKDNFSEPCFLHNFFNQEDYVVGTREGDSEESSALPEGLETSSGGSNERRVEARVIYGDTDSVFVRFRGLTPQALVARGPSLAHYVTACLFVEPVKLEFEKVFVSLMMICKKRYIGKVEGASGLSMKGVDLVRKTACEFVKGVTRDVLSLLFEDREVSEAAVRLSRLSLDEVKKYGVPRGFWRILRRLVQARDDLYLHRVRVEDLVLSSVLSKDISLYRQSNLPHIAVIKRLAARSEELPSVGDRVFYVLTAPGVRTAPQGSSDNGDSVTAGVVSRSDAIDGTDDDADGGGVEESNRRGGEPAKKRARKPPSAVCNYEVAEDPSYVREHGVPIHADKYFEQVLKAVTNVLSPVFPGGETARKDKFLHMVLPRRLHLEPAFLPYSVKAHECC
Text: CMV DNA Polymerase Assay. The partially purified HCMV-specific DNA polymerase was a generous gift from Dr. B. Wahren, National Bacteriological Laboratory, Stockholm. The procedure for the purification of HCMV DNA polymerase by sequential chromatographic steps on DEAE-cellulose (Whatman DE-52) and phosphocellulose (Whatman P-11) and the measurement of enzyme activity have been described previously (5).
as §1

HIV-1 = settings: patients, after a 14-day treatment; cited from earlier work
[2] = system: uninfected PHA-stimulated human PBM cells; assay: Cell proliferation / toxicity in uninfected PBM cells (trypan blue exclusion); format: cell-based
Procedure: Cell proliferation. The drugs alone and in combination were evaluated for their potential toxic effects on uninfected PHA-stimulated human PBM cells. Flasks were seeded so that the final cell concentration was 3×10^5 cells ml. The cells were cultured with and without drug for 6 days at which time aliquots were counted for cell viability by using the trypan blue exclusion method.

[3] = Human immunodeficiency virus 1, PBMC

Cc1cn([C@H]2C[C@H](N=[N+]=[N-])[C@@H](CO)O2)c(=O)[nH]c1=O [AZT, 3'-azido-3'-deoxythymidine]
EC50 (HCMV strain Ad169; extrapolated in order to calculate C.I.-values, read-out: EC50 (extrapolated)): 383000 nM
inhibitory effect on multiplication of HCMV Ad169 in HEL fibroblasts (HCMV strain Ad169; concentrations up to 200 μM): virtually without inhibitory effect
effect against HCMV replication in cell culture (HCMV strain Ad169; human embryonic lung fibroblasts): no inhibitory effect; also recorded: neither inhibited the replication
RT activity (HIV-1 (strain LAV-1); AZT 0.002 μM): 750 kdpm/ml
RT activity (HIV-1 (strain LAV-1); AZT 0.004 μM): 584 kdpm/ml
RT activity (HIV-1 (strain LAV-1); AZT 0.008 μM): 343 kdpm/ml
RT activity (HIV-1 (strain LAV-1); AZT 0.016 μM): 35.9 kdpm/ml
inhibition at 0.002 µM (HIV-1 (strain LAV-1); [3]): 3%
inhibition at 0.004 µM (HIV-1 (strain LAV-1); [3]): 24.5%
inhibition at 0.008 µM (HIV-1 (strain LAV-1); [3]): 55.7%
inhibition at 0.016 µM (HIV-1 (strain LAV-1); [3]): 95.5%
EC50 (HIV-1 (strain LAV-1); [3]): 6 nM

Cc1cn([C@H]2C[C@H](N=[N+]=[N-])[C@@H](COP(=O)(O)OP(=O)(O)OP(=O)(O)O)O2)c(=O)[nH]c1=O [AZT-TP, 3'-azido-3'-deoxythymidine-5'-triphosphate]
m ± SE (slope of median effect plot) ([1]; HIV-1 reverse transcriptase): 0.87±0.03
EC50 ([1]; HIV-1 reverse transcriptase, read-out: EC50 (median effective concentration)): 3 nM
m ± SE (slope of median effect plot) (HCMV DNA polymerase; CMV DNA polymerase): 0.88 ± 0.09

O=C(O)P(=O)(O)O [PFA, phosphonoformic acid]
EC50 (HCMV strain Ad169; plaque formation, read-out: EC50 (median effective concentration)): 34000 nM
HIV-1 p24 antigen concentrations (HIV-1): significant reduction
toxicity to PBM cells [2]: not toxic
inhibition at 8 µM (HIV-1 (strain LAV-1); [3]): 9.1%
inhibition at 16 µM (HIV-1 (strain LAV-1); [3]): 41.1%
inhibition at 32 µM (HIV-1 (strain LAV-1); [3]): 75.5%
inhibition at 64 µM (HIV-1 (strain LAV-1); [3]): 88.1%
inhibition at 128 µM (HIV-1 (strain LAV-1); [3]): 95.5%
EC50 (HIV-1 (strain LAV-1); [3]): 22000 nM
RT activity (HIV-1 (strain LAV-1); PFA 8 μM): 703 kdpm/ml
RT activity (HIV-1 (strain LAV-1); PFA 16 μM): 455 kdpm/ml
RT activity (HIV-1 (strain LAV-1); PFA 32 μM): 190 kdpm/ml
RT activity (HIV-1 (strain LAV-1); PFA 64 μM): 93.1 kdpm/ml
RT activity (HIV-1 (strain LAV-1); PFA 128 μM): 35.9 kdpm/ml
EC50 [1]: 140 nM
m ± SE (slope of median effect plot) ([1]; HIV-1 reverse transcriptase): 0.91±0.03
EC50 times lower than that of AZT-TP (HCMV DNA polymerase): more than 30 times
m ± SE (slope of median effect plot) (HCMV DNA polymerase; CMV DNA polymerase): 0.79 ± 0.02
EC50 (HCMV DNA polymerase; CMV DNA polymerase, read-out: EC50 (median effective concentration)): 780 nM
